Experimental data published in patent US20240254119A1 (THIRD HARMONIC BIO, INC., priority 2022, published 2024).

Experiments:
[1] = Kinetic solubility assay; type: physicochemical; conditions: kinetic solubility, 50 mM PB (pH 7.4), shaken 24 hours at RT
Summary of the method: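 Test compounds from 10 mM DMSO stock were diluted in 50 mM phosphate buffer, pH 7.4, and shaken for 24 h at RT. After PTFE filtration and centrifugation, filtrate concentration was quantified by UPLC-UV/HPLC-UV against a standard curve.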

[2] = target: T1, CSF-1R (Homo sapiens, UniProt P07333); test: Caliper biochemical assay, CSF-1R; conditions: Table 6
T1 construct: purchased Invitrogen PV3249 (lot 662393N)
T1 sequence (P07333 20-972): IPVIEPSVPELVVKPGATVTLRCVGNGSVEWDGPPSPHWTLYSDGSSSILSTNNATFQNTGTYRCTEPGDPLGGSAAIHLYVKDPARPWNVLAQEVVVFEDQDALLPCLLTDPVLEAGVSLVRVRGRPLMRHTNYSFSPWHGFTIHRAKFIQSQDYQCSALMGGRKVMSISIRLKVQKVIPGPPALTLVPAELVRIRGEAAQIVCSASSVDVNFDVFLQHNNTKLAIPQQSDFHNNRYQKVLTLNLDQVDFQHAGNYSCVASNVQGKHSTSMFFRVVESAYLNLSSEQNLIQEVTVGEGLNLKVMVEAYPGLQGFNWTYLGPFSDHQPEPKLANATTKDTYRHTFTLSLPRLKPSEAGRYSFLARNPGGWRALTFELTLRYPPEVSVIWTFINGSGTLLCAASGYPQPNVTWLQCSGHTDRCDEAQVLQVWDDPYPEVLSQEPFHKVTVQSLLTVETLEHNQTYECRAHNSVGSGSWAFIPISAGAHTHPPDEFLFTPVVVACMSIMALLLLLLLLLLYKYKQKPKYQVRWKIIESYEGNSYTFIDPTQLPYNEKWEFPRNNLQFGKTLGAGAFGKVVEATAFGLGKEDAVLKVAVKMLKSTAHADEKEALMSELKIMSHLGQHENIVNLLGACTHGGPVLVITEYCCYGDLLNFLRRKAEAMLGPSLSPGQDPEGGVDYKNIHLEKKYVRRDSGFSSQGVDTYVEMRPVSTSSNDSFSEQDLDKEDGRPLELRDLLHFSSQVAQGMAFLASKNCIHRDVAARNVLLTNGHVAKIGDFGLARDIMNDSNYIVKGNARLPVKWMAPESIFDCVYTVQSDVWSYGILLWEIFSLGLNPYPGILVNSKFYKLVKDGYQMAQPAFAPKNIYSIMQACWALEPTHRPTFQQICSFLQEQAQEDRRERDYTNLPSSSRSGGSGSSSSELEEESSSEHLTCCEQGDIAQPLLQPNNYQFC
Method: (§1) Enzyme, substrate, and cofactors (ATP and Mn^2+) are combined in a well of a microtiter plate and incubated for 3 hours at 25° C. At the end of the incubation, the reaction is quenched by the addition of an EDTA-containing buffer. Substrate and product are separated electrophoretically using the microfluidic-based LabChip 3000 Drug Discovery System from Caliper Life Sciences* and quantitated by fluorescence intensity.
(§2) The substrate used in the CSF-1R and PDGFRα assay is FAM-[…]-CONH2 (FAM is carboxyfluorescein). Peptide should be >95% purity. The substrate for the KIT assay is FAM-[…]-NH2.
(§3) • 1. To a well of a 384-well plate add 5 μL of 2× enzyme buffer (or control) • 2. Add 100 nL of 100× compound. • 3. Add 5 μL of 2× substrate buffer. • 4. Incubate plate at 25° C. for 3 hours. • 5. Add 10 uL of […]. • 6. Read plate LabChip 3000 Drug Discovery System
(§4) • 3 hours at 25° C. where 100% Inhibitor: No enzyme.

[3] = target: T2, PDGFRα (Homo sapiens, UniProt P16234); test: Caliper biochemical assay, PDGFRα; conditions: Table 6
T2 construct: purchased Millipore 14-467 (lot 26321_ACTI)
T2 sequence (P16234 24-1089): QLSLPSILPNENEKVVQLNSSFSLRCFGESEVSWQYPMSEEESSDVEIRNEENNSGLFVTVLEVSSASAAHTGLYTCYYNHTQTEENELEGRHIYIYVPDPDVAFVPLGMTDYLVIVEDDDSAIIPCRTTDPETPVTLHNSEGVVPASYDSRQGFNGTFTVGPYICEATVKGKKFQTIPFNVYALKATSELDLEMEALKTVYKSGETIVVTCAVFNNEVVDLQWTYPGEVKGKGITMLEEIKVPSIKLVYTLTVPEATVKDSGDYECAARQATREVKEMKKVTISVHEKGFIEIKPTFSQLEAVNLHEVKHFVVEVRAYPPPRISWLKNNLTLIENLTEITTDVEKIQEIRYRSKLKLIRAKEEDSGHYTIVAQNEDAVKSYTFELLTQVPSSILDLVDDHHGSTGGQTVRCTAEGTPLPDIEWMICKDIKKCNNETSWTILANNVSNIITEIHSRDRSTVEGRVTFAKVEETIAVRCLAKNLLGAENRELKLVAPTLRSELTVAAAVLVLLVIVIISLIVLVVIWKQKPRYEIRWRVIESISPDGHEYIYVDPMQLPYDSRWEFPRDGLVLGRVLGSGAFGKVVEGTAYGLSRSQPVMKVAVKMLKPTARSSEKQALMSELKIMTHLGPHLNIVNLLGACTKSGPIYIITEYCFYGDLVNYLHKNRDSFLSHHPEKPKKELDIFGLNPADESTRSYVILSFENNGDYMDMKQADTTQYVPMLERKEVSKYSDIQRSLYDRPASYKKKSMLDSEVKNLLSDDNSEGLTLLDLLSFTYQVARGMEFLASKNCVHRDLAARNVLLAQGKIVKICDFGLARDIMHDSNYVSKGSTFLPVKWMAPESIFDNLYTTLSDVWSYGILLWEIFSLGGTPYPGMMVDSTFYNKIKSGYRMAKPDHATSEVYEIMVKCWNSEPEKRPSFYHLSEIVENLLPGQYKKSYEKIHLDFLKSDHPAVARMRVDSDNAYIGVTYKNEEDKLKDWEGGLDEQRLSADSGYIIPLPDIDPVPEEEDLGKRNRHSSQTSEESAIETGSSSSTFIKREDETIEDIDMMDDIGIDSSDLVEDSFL
Method: as §1, §2, §3, §4

[4] = target: T3, wtKIT (Homo sapiens, UniProt P10721); test: HTRF biochemical assay, wtKIT (phosphorylation of a peptide substrate); conditions: Table 4
T3 construct: 1888289AM in the reaction mixtures
T3 sequence (P10721 26-976): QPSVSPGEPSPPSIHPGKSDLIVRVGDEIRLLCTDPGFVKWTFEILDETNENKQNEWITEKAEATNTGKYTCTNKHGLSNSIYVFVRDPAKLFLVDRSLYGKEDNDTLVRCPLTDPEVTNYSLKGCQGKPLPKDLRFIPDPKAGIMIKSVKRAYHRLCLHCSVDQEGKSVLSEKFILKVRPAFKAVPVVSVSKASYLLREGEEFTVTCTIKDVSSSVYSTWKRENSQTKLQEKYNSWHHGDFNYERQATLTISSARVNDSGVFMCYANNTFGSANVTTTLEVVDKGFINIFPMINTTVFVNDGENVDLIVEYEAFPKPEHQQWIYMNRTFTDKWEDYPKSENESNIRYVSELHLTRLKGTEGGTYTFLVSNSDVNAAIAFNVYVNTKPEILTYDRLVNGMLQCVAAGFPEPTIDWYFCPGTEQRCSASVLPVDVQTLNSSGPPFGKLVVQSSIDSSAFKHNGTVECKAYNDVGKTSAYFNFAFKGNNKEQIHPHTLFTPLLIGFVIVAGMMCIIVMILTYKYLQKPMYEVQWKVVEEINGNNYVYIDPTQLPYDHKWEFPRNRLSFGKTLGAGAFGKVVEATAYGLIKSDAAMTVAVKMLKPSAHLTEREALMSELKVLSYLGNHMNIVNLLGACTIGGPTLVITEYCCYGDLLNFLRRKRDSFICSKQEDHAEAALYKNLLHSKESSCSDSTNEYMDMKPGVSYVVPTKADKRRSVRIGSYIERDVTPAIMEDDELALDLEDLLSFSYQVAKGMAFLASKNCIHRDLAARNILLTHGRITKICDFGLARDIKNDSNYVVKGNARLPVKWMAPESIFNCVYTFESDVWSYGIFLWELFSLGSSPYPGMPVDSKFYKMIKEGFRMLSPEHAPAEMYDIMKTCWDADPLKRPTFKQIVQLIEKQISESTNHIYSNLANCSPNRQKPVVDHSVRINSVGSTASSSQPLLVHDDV
Summary of the method: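 wtKIT (5.0 nM) phosphorylating 1 µM FAM-labelled peptide with 400 µM ATP and 10 mM MnCl2 in 100 mM HEPES pH 7.5, 1% DMSO, 3 h at 25 °C. EDTA quench; phosphopeptide detected with anti-phosphotyrosine antibody by HTRF. Enzyme titrated for 10-20% substrate conversion.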

[5] = target: T3, wtKIT; test: Caliper biochemical assay, wtKIT; conditions: Table 6, read-out: KIT Biochemical IC50 avg
Summary of the method: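 Enzyme (5.0 nM wtKIT), 1 μM FAM-labelled peptide, 400 μM ATP and 10 mM MnCl2 in HEPES pH 7.5 with 1% DMSO, incubated 3 h at 25° C. EDTA quench; substrate and phosphoproduct separated by microfluidic electrophoresis and quantified by fluorescence.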

[6] = target: T4, BCRP (BCRP-MDCKII monolayer) (Homo sapiens, UniProt Q9UNQ0); test: MDCKII-BCRP bidirectional transport assay; type: in vitro ADME; conditions: for MDCK-BCRP: Papp A-B: apical to basolateral
T4 construct: host or cells: MDCKII (canine kidney) cells
T4 sequence (Q9UNQ0 1-655): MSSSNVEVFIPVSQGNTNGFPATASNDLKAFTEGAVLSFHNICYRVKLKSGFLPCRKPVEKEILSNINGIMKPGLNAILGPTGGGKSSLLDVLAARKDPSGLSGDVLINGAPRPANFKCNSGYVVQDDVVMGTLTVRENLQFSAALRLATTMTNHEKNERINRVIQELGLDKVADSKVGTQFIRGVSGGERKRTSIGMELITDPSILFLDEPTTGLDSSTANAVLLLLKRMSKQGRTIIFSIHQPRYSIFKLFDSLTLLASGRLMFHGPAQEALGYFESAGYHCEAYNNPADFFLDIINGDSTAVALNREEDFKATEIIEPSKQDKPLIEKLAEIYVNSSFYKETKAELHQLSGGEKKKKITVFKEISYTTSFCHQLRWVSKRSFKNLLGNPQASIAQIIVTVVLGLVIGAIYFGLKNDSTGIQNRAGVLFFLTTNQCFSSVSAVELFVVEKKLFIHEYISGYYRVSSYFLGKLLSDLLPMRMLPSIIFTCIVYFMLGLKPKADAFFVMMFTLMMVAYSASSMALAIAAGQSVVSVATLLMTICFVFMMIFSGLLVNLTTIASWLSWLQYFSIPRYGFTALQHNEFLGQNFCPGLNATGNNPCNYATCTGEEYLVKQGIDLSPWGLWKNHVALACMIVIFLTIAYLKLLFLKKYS
Summary of the method: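 Bidirectional A→B and B→A transport across PreadyPort BCRP-MDCKII monolayers (days 12–15) was run in duplicate for 120 min at 37° C, 5% CO2 after a 15 min preincubation. Compound levels were measured by LC-MS/MS. Papp and recovery were calculated, with efflux ratio indicating transporter engagement.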

IC50 [2] | IC50 [3] | IC50 [4] | IC50 [5] | MDCK-BCRP: Efflux Ratio [6] | MDCK-BCRP: Papp A-B [6] | SMILES | Solubility (μM) [1]
≤ 50 nM | 50 to 500 nM | 50 to 500 nM | ≤ 50 nM |  |  | Cc1ccc(-c2noc([C@@H]3CCC(C)(C)N3)n2)cc1NC(=O)c1cnc2ccccn12 (racemic) [Compound I-232] | ** (a solubility greater than 10 μM and less than or equal to 50 μM)
500 to 5000 nM | 5000 to 30000 nM |  | 50 to 500 nM | 28.3 | 1.07 10^−6 cm/s | Cc1ccc(-c2noc(C3CCC(=O)N3C)n2)cc1NC(=O)c1cnc2ccccn12 (racemic) [Compound I-326] | * (a solubility greater than 50 μM)
50 to 500 nM | 500 to 5000 nM |  | ≤ 50 nM | 1.35 | 8.71 10^−6 cm/s | Cc1ccc(-c2noc(CC3CCCOC3)n2)cc1NC(=O)c1cnc2ccccn12 (racemic) [Compound I-362] | *** (a solubility greater than 2 μM and less than or equal to 10 μM)
≤ 50 nM | 50 to 500 nM | 50 to 500 nM | ≤ 50 nM |  |  | CCS(=O)(=O)N1CC[C@@H]1c1nc(-c2ccc(C)c(NC(=O)c3cnc4ccccn34)c2)no1 [Compound I-234] | ** (a solubility greater than 10 μM and less than or equal to 50 μM)
500 to 5000 nM | 5000 to 30000 nM | 50 to 500 nM | ≤ 50 nM |  |  | COC(=O)CS(=O)(=O)N1CC(c2nc(-c3ccc(C)c(NC(=O)c4cnc5ccccn45)c3)no2)C1 [Compound I-236] | *** (a solubility greater than 2 μM and less than or equal to 10 μM)
50 to 500 nM | 500 to 5000 nM |  | ≤ 50 nM | 3.4 | 6.58 10^−6 cm/s | Cc1ccc(-c2noc(-c3ccccn3)n2)cc1NC(=O)c1cnc2ccccn12 [Compound I-272] | **** (a solubility less than or equal to 2 μM)
50 to 500 nM | 500 to 5000 nM |  | ≤ 50 nM | 1.07 | 11.3 10^−6 cm/s | CCOC1CC(c2nc(-c3ccc(C)c(NC(=O)c4cnc5ccccn45)c3)no2)C1 (stereo not drawn) [Compound I-309] | *** (a solubility greater than 2 μM and less than or equal to 10 μM)
≤ 50 nM | 500 to 5000 nM |  | ≤ 50 nM | 1.42 | 13.3 10^−6 cm/s | COC(=O)N1CC(c2nc(-c3ccc(C)c(NC(=O)c4cnn5cc(Br)ccc45)c3)no2)C1 [Compound I-312] | **** (a solubility less than or equal to 2 μM)
≤ 50 nM | 50 to 500 nM |  | ≤ 50 nM | 16 | 1.75 10^−6 cm/s | Cc1ccc(-c2noc(C3(CO)CC(F)(F)C3)n2)cc1NC(=O)c1cnc2ccccn12 [Compound I-320] | *** (a solubility greater than 2 μM and less than or equal to 10 μM)
50 to 500 nM | 500 to 5000 nM |  | ≤ 50 nM | 3.4 | 4.73 10^−6 cm/s | COC(=O)Cc1nc(-c2ccc(C)c(NC(=O)c3cnc4ccccn34)c2)no1 [Compound I-321] | **** (a solubility less than or equal to 2 μM)
50 to 500 nM | 5000 to 30000 nM |  | ≤ 50 nM | 2.7 | 1.38 10^−6 cm/s | Cc1ccc(-c2noc(CC(=O)OCc3ccccc3)n2)cc1NC(=O)c1cnc2ccccn12 [Compound I-322] | **** (a solubility less than or equal to 2 μM)
≤ 50 nM | 50 to 500 nM |  | ≤ 50 nM | 1.39 | 11.4 10^−6 cm/s | COC1(C(F)F)CC(c2nc(-c3ccc(C)c(NC(=O)c4cnc5ccccn45)c3)no2)C1 (stereo not drawn) [Compound I-325] | **** (a solubility less than or equal to 2 μM)
≤ 50 nM | 500 to 5000 nM |  | ≤ 50 nM | 1.48 | 11.5 10^−6 cm/s | Cc1ccc(-c2noc(C34COC(C)(C3)C4)n2)cc1NC(=O)c1cnc2ccccn12 [Compound I-344] | *** (a solubility greater than 2 μM and less than or equal to 10 μM)
50 to 500 nM | 500 to 5000 nM |  | ≤ 50 nM | 1.28 | 0.17 10^−6 cm/s | Cc1ccc(-c2noc(C3CC(Oc4ccccc4)C3)n2)cc1NC(=O)c1cnc2ccccn12 (stereo not drawn) [Compound I-347] | **** (a solubility less than or equal to 2 μM)
50 to 500 nM | 500 to 5000 nM |  | ≤ 50 nM | 2.37 | 0.13 10^−6 cm/s | Cc1ccc(-c2noc(C3CC(Oc4ccccc4)C3)n2)cc1NC(=O)c1cnc2ccccn12 (stereo not drawn) [Compound I-348] | *** (a solubility greater than 2 μM and less than or equal to 10 μM)
≤ 50 nM | 50 to 500 nM |  | ≤ 50 nM | 0.54 | 1.1 10^−6 cm/s | Cc1ccc(-c2noc([C@H]3C[C@@H]3F)n2)cc1NC(=O)c1cnc2ccc(N3CCCC3)cn12 [Compound I-361] | **** (a solubility less than or equal to 2 μM)
≤ 50 nM | ≤ 50 nM |  | ≤ 50 nM | 1.21 | 4.73 10^−6 cm/s | Cc1ccc(-c2noc([C@H]3C[C@@H]3F)n2)cc1NC(=O)c1cnc2cc(N3CCCC3)ccn12 [Compound I-365] | *** (a solubility greater than 2 μM and less than or equal to 10 μM)
50 to 500 nM | 50 to 500 nM |  | ≤ 50 nM | 1.09 | 15 10^−6 cm/s | COC12CC(c3nc(-c4ccc(C)c(NC(=O)c5cnc6ccccn56)c4)no3)(C1)C2 [Compound I-368] | **** (a solubility less than or equal to 2 μM)
≤ 50 nM | 50 to 500 nM |  | ≤ 50 nM | 1.74 | 7.55 10^−6 cm/s | Cc1ccc(-c2noc([C@H]3C[C@@H]3F)n2)cc1NC(=O)c1cnc2cc(Br)ccn12 [Compound I-383] | **** (a solubility less than or equal to 2 μM)
≤ 50 nM | 500 to 5000 nM |  | ≤ 50 nM | 2.82 | 7.51 10^−6 cm/s | Cc1ccc(-c2noc(C34CC(F)(C3)C4)n2)cc1NC(=O)c1cnc2ccccn12 [Compound I-392] | *** (a solubility greater than 2 μM and less than or equal to 10 μM)

SMILES | IC50 [2] | IC50 [3] | IC50 [4] | IC50 [5] | MDCK-BCRP: Efflux Ratio [6] | MDCK-BCRP: Papp A-B [6] | Solubility (μM) [1]
Cc1ccc(-c2noc(C3CCC(F)C3)n2)cc1NC(=O)c1cnc2ccccn12 (racemic) [Compound I-318] | ≤ 50 nM | 50 to 500 nM |  | ≤ 50 nM | 0.93 | 13.9 10^−6 cm/s | *** (a solubility greater than 2 μM and less than or equal to 10 μM)
